# Laboratory results: PMC12502564, “Evaluation of LLM-generated peptide as foundation template for discovery of effective encrypted AMPs against clinical superbugs” (Microbiology Spectrum, 2025)
# Read-outs that look alike come from different tables or passages of the source. No end group written: not given here.
# Tests used:
# MRSA = experiment: Time-kill curve; format: cell-based, methicillin-resistant Staphylococcus aureus; settings: ~10^5 CFU mL^−1 in MH broth
# Protocol: (§1) Bacteria in the logarithmic growth phase were diluted to approximately 10^5 CFU mL^−1 in MH broth and treated with peptides, polymyxin B, or vancomycin at final concentrations of 1/2 × MIC, 1 × MIC, 2 × MIC, and 4 × MIC. After the addition of the test compound, samples were taken at 0, 3, 6, 9, 12, and 24 h and serially diluted. Subsequently, 5 µL of the diluted samples were spread on agar plates and incubated at 37°C for 20 h. The bacterial concentration CFU mL^−1 at the corresponding time point of each sample was calculated based on the number of colonies on the agar plate, and the log10 (CFU mL^−1) was plotted against time (h).
# MRSA 2210187 = format: cell-based, methicillin-resistant Staphylococcus aureus
# Protocol: (§2) The MIC of all peptides was determined using the microdilution broth method in a 96-well plate. Peptides were dissolved in the DMSO with an initial concentration of 12,800 µg mL^−1. And cells of eight strains were separately suspended in the MHB at a density of approximately 10^5 CFU mL^−1. In the first column of the 96-well plate, 16 µL of peptide and 184 µL of MHB were added to each well to achieve a final concentration of 1,024 µg mL^−1. One-hundred microliters of MHB was added to each of the remaining wells. Then the first column of liquid was mixed well and diluted to the 12th column using the twofold dilution method. One-hundred microliters of prepared bacterial solution was added to all wells, and the 96-well plate was incubated at 37°C for 18–24 h. The MIC was defined as the concentration of the peptide in the well just preceding the first well showing visible turbidity. All experiments were performed in triplicate to ensure reliability.
# CRAB 2210186 [1] = format: cell-based, carbapenem-resistant Acinetobacter baumannii
# Protocol: as §2
# CRAB 2210186 [2] = experiment: Thigh infection mouse model; format: in vivo, BALB/c mice; settings: neutropenic mice, ~1 × 10^6 CFU in thigh, i.p. at 1, 3, 5, 7 h post-infection (PL-15 10 × MIC, 100 µL; polymyxin B 20,000–25,000 U kg^−1 day^−1), n = 8
# Description: The WHO has classified CRAB as a “Critical Priority” pathogen in its Priority Pathogens List, recognizing it as a predominant causative agent of hospital-acquired infections ([2]). This classification reflects CRAB’s global dissemination, high mortality rates, and extreme resistance profiles. Given this critical situation, a thigh infection model was employed to evaluate the in vivo therapeutic efficacy of PL-15 against CRAB. To establish the mouse thigh infection model, mice were pre-treated intraperitoneally with cyclophosphamide 4 days and 1 day prior to bacterial inoculation to induce neutropenia, administered at doses of 150 mg kg^−1 and 100 mg kg^−1, respectively ([51]). Each mouse was then injected with approximately 10^6 colony-forming unit (CFU) of CRAB in the thigh tissue, followed by four intraperitoneal injections of PL-15, polymyxin B, or phosphate-buffered saline (PBS) within 24 h of infection (Fig. 3a).
# All animal experiments were performed according to the “Principles of Laboratory Animal Care” (NIH publication No. 86-23, revised 1985) and approved by the Animal Care and Use Committee of Shandong University (LL20240622, Jinan, China). Five-week-old male BALB/c mice were purchased from Beijing Vital River Laboratory Animal Technology Co., Ltd. (Beijing, China) and kept under a 12-hour light/12-hour dark cycle, humidity of 50%, and temperature of 22°C in standard specific pathogen-free individually vented cages.
# To establish the mouse thigh infection model, mice were injected intraperitoneally with cyclophosphamide 4 d and 1 d before bacterial administration, at concentrations of 150 and 100 mg kg^−1, respectively, to induce neutropenia ([51]). CRAB 2210186 cells were suspended in sterile PBS, adjusted to a concentration of ~1 × 10^6 CFU per infection site and injected into the right thighs of eight mice per treatment group. PL-15 (10 × MIC, 100 µL), polymyxin B (20,000–25,000 U kg^−1 day^−1) or PBS were administered intraperitoneally at 1, 3, 5, and 7 h post-infection. Mice were euthanized 24 h after infection, and the thigh tissues were aseptically collected, weighed, homogenized, serially diluted in PBS, and plated onto solid MCA. The CFU of CRAB 2210186 per thigh was calculated by plating dilutions of the thigh homogenates (0.25 g of thigh tissue in 10 mL sterile PBS) on agar plates and counting colonies.
# CRAB [3] = experiment: PI assay, cytoplasmic membrane integrity; format: cell-based, carbapenem-resistant Acinetobacter baumannii; settings: 10 × MIC, 10^8 CFU mL^−1
# Protocol: PI (which is known to stain nuclear chromatin upon cell membrane disruption) assay was carried out to evaluate the ability of AMPs to disrupt the cytoplasmic membrane integrity ([63]). After CRAB was grown to the exponential phase, bacteria cells were harvested and washed three times in washing buffer of 5 mM glucose and 5 mM HEPES (1:1, pH = 7.2) and then re-adjusted to 10^8 CFU mL^−1 in the same buffer. Bacterial suspensions (150 µL/well) were loaded into black-walled, clear-bottom 96-well plates with lids. Following bacterial loading, 50 µL of 10 µM PI was introduced into each well, with 30 min pre-incubation CRAB. Post-incubation fluorescence signals were acquired using 535 nm excitation and 617 nm emission wavelengths. Compounds (10 µL) were then administered to achieve 1 × MIC/10 × MIC-equivalent final concentrations in the dye-loaded bacterial suspensions. Real-time fluorescence monitoring was performed with continuous acquisition during the first 10 min, followed by measurements at 10-min intervals. Negative controls received 10 µL sterile water in lieu of antimicrobial peptides while maintaining equivalent pre-incubation conditions. All experimental conditions were executed with three biological replicates.
# CRAB [4] = experiment: Biofilm formation inhibition assay (crystal violet); format: cell-based, carbapenem-resistant Acinetobacter baumannii; settings: 1/2 × MIC, 24 h, OD570
# Protocol: The crystal violet staining method ([66]) was used to determine the inhibitory activity of the compounds against the biofilm formation of CRAB. The steps were as follows: prepare a bacterial solution (10^6 CFU mL^−1), mix it with different final concentrations of the compound (1/2 × MIC, 1 × MIC, 2 × MIC, and 4 × MIC), and culture it for 24 h. After discarding the supernatant, wash with PBS, add anhydrous methanol to fix the biofilm, and then stain it with crystal violet for 60 min after drying. After washing, dissolve the biofilm with 33% glacial acetic acid, and measure OD570. Three parallel experiments were performed, and the biofilm formation inhibition rate was calculated by the following formula:
# (3) Biofilm formation inhibition rate (%)=(1−OD(sample)− OD(blank)/OD(negative)− OD(blank))×100%
# CRAB [5] = experiment: Time-kill curve; format: cell-based, carbapenem-resistant Acinetobacter baumannii; settings: ~10^5 CFU mL^−1 in MH broth
# Protocol: as §1
# CRAB [6] = experiment: Drug resistance assay, 20 passages; format: cell-based, carbapenem-resistant Acinetobacter baumannii; settings: 20 passages at 0.5-fold MIC, n = 3
# Protocol: Resistance development assays were performed following previous report ([43]). CRAB was cultured overnight at 37°C at 160 rpm in LB. In wells of a 96-well polypropylene flat-bottom plate, 5 µL of the overnight bacterial culture (10^7 CFU mL^−1) was added to 100 µL of peptides/antibiotic solutions (with final concentrations of 0.25 to 512 µg mL^−1) in MHB. Plates were incubated for 18 to 20 h at 37°C. The MIC, the lowest concentration of peptides/antibiotic that caused lack of visible bacterial growth, was determined for each bacterial species. Thereafter, 5 µL of the growth at the 0.5-fold MIC suspension (10^7 CFU mL^−1) was added to a fresh medium containing peptides/antibiotic, and these mixtures were incubated as described above. This was repeated for 20 passages. All experiments were performed in triplicate to ensure reliability.
# CRKP 2403276 = format: cell-based, carbapenem-resistant K. pneumoniae
# Protocol: as §2
# E. coli ATCC25922 = format: cell-based, Escherichia coli
# Protocol: as §2
# S. aureus ATCC25923 = format: cell-based, Staphylococcus aureus
# Protocol: as §2
# [7] = tested on: all eight bacterial strains; format: cell-based, gram-positive and gram-negative bacteria
# Protocol: as §2
# CRPA 2403282 = format: cell-based, carbapenem-resistant P. aeruginosa
# Protocol: as §2
# A. baumannii ATCC19606 = format: cell-based, Acinetobacter baumannii
# Protocol: as §2
# CRAB [8] = tested on: CRAB; set-up: method as in earlier work; settings: in vitro; cited from earlier work
# Description: Using this validated AMP as a template, we performed sequence alignment with the National Center for Biotechnology Information (NCBI) database to identify encrypted AMPs.
# [9] = set-up: method as in earlier work; settings: cited from earlier work
# [10] = MHB, ~10^5 CFU mL^−1, 37°C, 18–24 h, triplicate
molecule,measurement,setting,value
"CN[C@H](CC(C)C)C(=O)N[C@H]1C(=O)N[C@@H](CC(N)=O)C(=O)N[C@H]2C(=O)N[C@H]3C(=O)N[C@H](C(=O)N[C@H](C(=O)O)c4cc(O)cc(O)c4-c4cc3ccc4O)[C@H](O)c3ccc(c(Cl)c3)Oc3cc2cc(c3O[C@@H]2O[C@H](CO)[C@@H](O)[C@H](O)[C@H]2O[C@H]2C[C@](C)(N)[C@H](O)[C@H](C)O2)Oc2ccc(cc2Cl)[C@H]1O [vancomycin, reference compound]",time to complete bacterial eradication of MRSA,MRSA; 1 × MIC,≤ 6 h
same,time to full bacterial killing of MRSA,MRSA; 2 × MIC,≤ 3 h
same,time to full bacterial killing of MRSA,MRSA; 4 × MIC,≤ 3 h
GLLKPLLKIAAKVGSNLL-NH2 [[G4K]XT-7],MIC,MRSA 2210187; 2210187,below 8 µg mL^−1
same,MIC,CRAB 2210186 [1],below 8 µg mL^−1
GIWKTIKSMGKVFAGKILQNL-NH2 [[D4K]B2RP],MIC,MRSA 2210187; 2210187,below 8 µg mL^−1
same,MIC,CRAB 2210186 [1],below 8 µg mL^−1
"ILGKLLKTAAKLLSNL [[S7K,G11K]alyteserin-2a]",MIC,MRSA 2210187; 2210187,below 8 µg mL^−1
same,MIC,CRAB 2210186 [1]; [10],below 8 µg mL^−1
GIGKFLKKAKKFGKAFVKILKK-NH2 [pexiganan],MIC,MRSA 2210187; [10],below 8 µg mL^−1
same,MIC,CRAB 2210186 [1],below 8 µg mL^−1
GLGSLLGKAFKIGLKTVGKMMGGAPREQ [CPF-B1],MIC,MRSA 2210187; [10],below 8 µg mL^−1
same,MIC,CRAB 2210186 [1]; [10],below 8 µg mL^−1
polymyxin B [reference compound],reduction of bacterial load compared to the PBS control group,CRAB 2210186 [2]; 24 h,two orders of magnitude
same,bacteria eradicated in the thigh tissue within 24 h,CRAB 2210186 [2],over 97%
same,PI fluorescence (cytoplasmic membrane integrity),CRAB [3],strongest fluorescence response
same,biofilm formation inhibition,CRAB [4],moderate biofilm inhibition
same,time to complete bacterial eradication of CRAB,CRAB [5]; 2 × MIC,6 h
same,time to kill CRAB,CRAB [5]; 4 × MIC,≤ 3 h
same,MIC change after serial passaging,CRAB [6],64 fold
LKLSPKTKDTLKKVLKGAIKGAIAIASMA-NH2 [hymenochirin-1Pa],MIC,MRSA 2210187; 2210187,below 8 µg mL^−1
same,MIC,CRAB 2210186 [1],below 8 µg mL^−1
GVIKSVLKGVAKTVALGML-NH2 [B2RP-Era],MIC,MRSA 2210187; 2210187,below 8 µg mL^−1
same,MIC,CRAB 2210186 [1],below 8 µg mL^−1
WLKKILAWLKKKW [BR-13],MIC,CRKP 2403276,lower than 11 µg mL^−1
same,MIC,E. coli ATCC25922,lower than 11 µg mL^−1
same,MIC,MRSA 2210187; 2210187,3.33 µg/mL
same,MIC,S. aureus ATCC25923,lower than 11 µg mL^−1
same,MIC for all tested bacteria,[7],≤ 64 µg/mL
same,antimicrobial spectrum,[7]; judged from MICs on eight strains,broad-spectrum antimicrobial properties
same,MIC,CRPA 2403282,64 µg/mL
same,MIC,CRAB 2210186 [1],18.67 µg/mL
same,MIC,A. baumannii ATCC19606,lower than 11 µg mL^−1
"WLKKILKWLKW [g_AMP41, short peptide … generated by AMPGenix, used as template]",MIC,CRAB [8],8 µg/mL
same,efficacy in treating infections in vivo,[9],suboptimal efficacy
